For nine compounds, Kd, DC50 and IC50 results are on record in patent US20250115598A1 (Anaxis Pharma Pty Ltd, priority 2021, published 2025).

One test has as its target human MLKL (full length) (Homo sapiens (Human), UniProt Q8NB16). Put plainly: KINOMEscan binding assay, human MLKL (full length). Particulars: hMLKL, Table 25; read-out: MLKL (KD). The gist of the method:
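Tagged kinase + immobilized ligand beads + compound; eluted kinase quantified by qPCR. Kinase source: T7 phage lysate (BL21-derived E. coli, 32 °C) or HEK-293 with DNA tag. 11-pt 3-fold series, 1% DMSO, top 30,000 nM (most). Hill fit, slope −1 → Kd.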

A further test deals with endogenous MLKL in U937 (Homo sapiens (Human), UniProt Q8NB16). Description: Degradation assay: endogenous MLKL in U937 (western blot). To be noted: U937, 24 h incubation, read-out: Degradation of endogenous MLKL in U937 (DC50 cell-based assay). On the procedure: Degradation Assay: Screening Compounds Procedure to Evaluate the Activity of Compounds in Degrading Endogenous MLKL in Human and Mouse Cell
endogenous MLKL in U937, sequence (Q8NB16 whole entry): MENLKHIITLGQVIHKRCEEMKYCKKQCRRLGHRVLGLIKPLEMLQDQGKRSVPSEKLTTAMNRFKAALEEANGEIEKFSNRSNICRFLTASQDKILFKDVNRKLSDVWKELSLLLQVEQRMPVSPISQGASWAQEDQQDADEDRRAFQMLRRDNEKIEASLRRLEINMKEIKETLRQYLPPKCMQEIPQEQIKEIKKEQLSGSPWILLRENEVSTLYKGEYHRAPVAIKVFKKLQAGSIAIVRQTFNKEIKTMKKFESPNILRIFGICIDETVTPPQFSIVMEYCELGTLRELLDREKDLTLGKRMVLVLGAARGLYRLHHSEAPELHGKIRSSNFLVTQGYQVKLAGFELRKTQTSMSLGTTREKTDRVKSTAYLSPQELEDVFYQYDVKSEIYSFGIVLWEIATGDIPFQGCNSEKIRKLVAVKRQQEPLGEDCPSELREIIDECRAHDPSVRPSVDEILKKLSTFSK
The mouse dermal fibroblast (MDF) cell line was seeded the day before the experiment in a 24-well plate at a cell density of […] per well in a volume of 0.5 mL per well and left to attach overnight. The human monocyte cell line (U937) was seeded on the day of the experiment in a 24-well plate at a cell density of […] per well in a volume of 0.5 mL per well.
The compound was diluted in DMSO with a starting concentration of 10 mM and titrated stepwise with a dilution of 1:5. 0.5 μL of the compound dilution was added to the appropriate well to achieve a final concentration of 10; 2; 0.4; 0.08 and 0.016 μM. A DMSO only well was included as control.
The cells were incubated for 24 h in the presence of the compound at 37° C. and 10% CO2.
After the 24 h incubation period, the medium was removed and cells washed with 0.5 mL PBS. The cells were then lysed directly in 60 μL of 1×SDS gel loading buffer.
The cell lysate was heat-denatured at […] for 10 min. 10 μL of lysate per well were run on 18-well 4-15% Criterion TGX stain free gels (BIO-RAD). The proteins were then transferred onto nitrocellulose membrane with a wet transfer protocol in the Criterion Blotter (BIO-RAD).
Membranes were blocked with 5% skim milk in TBST. Primary antibody against MLKL (clone 3H1, MABC604 Merck) was used at 1:2000 dilution in TBST with 1% BSA and left shaking over night at 4° C. After washes with TBST, the membranes were incubated with goat anti-rat IgG HRP-conjugated antibody (Southern Biotech) in 1% skim milk TBST at 1:10000 dilution for 1 h at room temperature. After TBST washes the bands were imaged on the ChemiDoc MP Imaging System (BIO-RAD) with Immobilion Western Chemiluminescent HRP Substrate Forte (Millipore). The loading control GAPDH was probed for with rabbit anti-GAPDH (CST 14C10) at 1:2000 dilution in 1% BSA TBST over night at 4° C. TBST washes were followed by incubation with goat anti-rabbit IgG HRP-conjugated antibody (Southern Biotech) in 1% skim milk TBST at 1:10000 dilution for 1 h at room temperature followed by TBST washes. The signal was detected as described above.
The band intensity was measured in the ImageLab Software (BIO-RAD) and the MLKL values adjusted for loading with GAPDH. The percentage of degradation was calculated by normalizing the compound treated values to the DMSO only control.
On the technique in general: A western blot detects proteins with antibodies after separation by electrophoresis.

Another test has as its target endogenous MLKL in MDF (Mus musculus (Mouse), UniProt Q9D2Y4). Put plainly: Degradation assay: endogenous MLKL in MDF (western blot). To be noted: MDF cells, 24 h incubation with compound, MLKL adjusted for loading with GAPDH, normalized to DMSO only control, read-out: Degradation of endogenous MLKL in MDF (DC50 cell-based assay). The gist of the method: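 MDF (seeded the day before) or U937 cells were treated 24 h at 37 °C, 10% CO2 with compound at 10, 2, 0.4, 0.08 and 0.016 μM final. Endogenous MLKL was quantified by western blot (anti-MLKL 3H1), normalized to GAPDH. Percent degradation was taken relative to DMSO control.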

The test system of test [1] is Immortalised Mouse Dermal Fibroblasts (MDFs). Put plainly: Cellular assay: inhibition of TSI induced necroptosis, CellTitre-Glo viability. To be noted: Mus musculus, Fibroblast; MDF, 3 hours TSI cocktail, Table 27; read-out: Inhibition of TSI-induced necroptosis (IC50 cell-based assay) in MDF. The gist of the method:
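Immortalised mouse dermal fibroblasts (2200 cells/well) pretreated 30 min with compound, 10-point 1:3 series from 36 μM, 0.3% DMSO. Then 3 h at 37° C. with TNF (100 ng/ml), Smac mimetic (500 nM) and IDN-6556 (10 μM). CellTiter-Glo luminescence normalised to DMSO (100%) and DMSO+TSI (0%); IC50 from 4-parameter logistic fit.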

Some results are limits rather than exact numbers.

endogenous MLKL in MDF, sequence (Q9D2Y4 whole entry): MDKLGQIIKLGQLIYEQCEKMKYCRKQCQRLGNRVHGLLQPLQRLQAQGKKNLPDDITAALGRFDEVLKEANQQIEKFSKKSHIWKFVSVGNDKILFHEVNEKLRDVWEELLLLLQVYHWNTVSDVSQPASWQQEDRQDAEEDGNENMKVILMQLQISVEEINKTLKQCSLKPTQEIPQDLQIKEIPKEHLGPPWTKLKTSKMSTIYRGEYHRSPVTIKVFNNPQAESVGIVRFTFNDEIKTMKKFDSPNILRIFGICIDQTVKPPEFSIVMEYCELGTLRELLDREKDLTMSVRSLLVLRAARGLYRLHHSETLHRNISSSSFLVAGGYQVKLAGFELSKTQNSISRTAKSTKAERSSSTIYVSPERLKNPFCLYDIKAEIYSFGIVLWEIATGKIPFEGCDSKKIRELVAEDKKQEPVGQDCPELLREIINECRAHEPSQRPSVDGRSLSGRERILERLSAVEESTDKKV
human MLKL (full length), sequence (Q8NB16 whole entry): as the sequence (Q8NB16 whole entry) above

As a reminder, the Kd is a measure of binding affinity in units of concentration. By DC50 is commonly meant the midpoint of the concentration-degradation curve. With `Cc1ncsc1-c1ccc(CNC(=O)[C@@H]2C[C@@H](O)CN2C(=O)[C@@H](NC(=O)C2(F)CC2)C(C)(C)C)c(OCCCCCCCCCn2cc(-c3cnc(N)c4c(-c5ccc(NS(=O)(=O)C(F)F)c(O[C@@H](C)c6ccc(F)cc6)c5)nn(C)c34)cn2)c1` [Compound 1041, (2S,4R)-N-[(2-{[9-(4-{4-amino-3-[4-(difluoromethanesulfonamido)-3-[(1S)-1-(4-fluorophenyl)ethoxy]phenyl]-1-methyl-1H-pyrazolo[4,3-c]pyridin-7-yl}-1H-pyrazol-1-yl)nonyl]oxy}-4-(4-methyl-1,3-thiazol-5-yl)phenyl)methyl]-1-[(2S)-2-[(1-fluorocyclopropyl)formamido]-3,3-dimethylbutanoyl]-4-hydroxypyrrolidine-2-carboxamide], on human MLKL (full length), the Kd was 0.01 to 1 µM. Also, the results for the DC50 at endogenous MLKL in U937 and at endogenous MLKL in MDF were 1 to 10 µM and less than 1 µM, respectively.

Take `Cn1nc(-c2ccc(NS(=O)(=O)C(F)F)c(F)c2)c2c(N)ncc(-c3cnn(C4CCN(C(=O)[C@H]5C[C@H](Nc6cccc7c6C(=O)N(C6CCC(=O)NC6=O)C7=O)C5)CC4)c3)c21` (stereo partly drawn) [Compound 1114, N-{4-[4-amino-1-methyl-7-(1-{1-[(trans)-3-{[2-(2,6-dioxopiperidin-3-yl)-1,3-dioxo-2,3-dihydro-1H-isoindol-4-yl]amino}cyclobutanecarbonyl]piperidin-4-yl}-1H-pyrazol-4-yl)-1H-pyrazolo[4,3-c]pyridin-3-yl]-2-fluorophenyl}-1,1-difluoromethanesulfonamide]: the dissociation constant Kd on human MLKL (full length) is less than 0.01 µM. The DC50 on endogenous MLKL in U937 and at endogenous MLKL in MDF was less than 1 µM in each case.

In general, IC50 refers to the concentration that inhibits the measured activity by half. With `C[C@H](Oc1cc(-c2nn(C)c3c(-c4cnn(C5CCN(C(=O)C6CCCN(c7cccc8c7C(=O)N(C7CCC(=O)NC7=O)C8=O)C6)CC5)c4)cnc(N)c23)ccc1NS(=O)(=O)C(F)F)c1ccc(F)cc1` (stereo partly drawn) [Compound 1077, N-(4-{4-amino-7-[1-(1-{1-[2-(2,6-dioxopiperidin-3-yl)-1,3-dioxo-2,3-dihydro-1H-isoindol-4-yl]piperidine-3-carbonyl}piperidin-4-yl)-1H-pyrazol-4-yl]-1-methyl-1H-pyrazolo[4,3-c]pyridin-3-yl}-2-[(1S)-1-(4-fluorophenyl)ethoxy]phenyl)-1,1-difluoromethane-sulfonamide], the half-maximal degradation concentration (DC50) on endogenous MLKL in U937 lay in the range of 1 to 10 µM. The IC50 in test [1] lay in the range of 1 to 10 µM.

`CCS(=O)(=O)Nc1ccc(-c2nn(C)c3c(-c4cnn(CCCCCCCOc5cccc6c5C(=O)N(C5CCC(=O)NC5=O)C6=O)c4)cnc(N)c23)cc1F` (centres unmarked) [Compound 1059, N-(4-{4-amino-7-[1-(7-{[2-(2,6-dioxopiperidin-3-yl)-1,3-dioxo-2,3-dihydro-1H-isoindol-4-yl]oxy}heptyl)-1H-pyrazol-4-yl]-1-methyl-1H-pyrazolo[4,3-c]pyridin-3-yl}-2-fluorophenyl)ethane-1-sulfonamide]: at human MLKL (full length), the Kd was less than 0.01 µM. For the same compound, the DC50 on endogenous MLKL in U937 and on endogenous MLKL in MDF was less than 1 µM each time.

Consider `C[C@H](Oc1cc(-c2nn(C)c3c(C#CCCCCCCNC(=O)COc4cccc5c4C(=O)N(C4CCC(=O)NC4=O)C5=O)cnc(N)c23)ccc1NS(=O)(=O)C(F)F)c1ccc(F)cc1` (stereo partly drawn) [Compound 1097, N-(8-{4-amino-3-[4-(difluoromethanesulfonamido)-3-[(1S)-1-(4-fluorophenyl)ethoxy]phenyl]-1-methyl-1H-pyrazolo[4,3-c]pyridin-7-yl}oct-7-yn-1-yl)-2-{[2-(2,6-dioxopiperidin-3-yl)-1,3-dioxo-2,3-dihydro-1H-isoindol-4-yl]oxy}acetamide], for which, at human MLKL (full length), the Kd was less than 0.01 µM. Further, the DC50 on endogenous MLKL in U937 was less than 1 µM.

Take `Cc1ncsc1-c1ccc(CNC(=O)[C@@H]2C[C@@H](O)CN2C(=O)[C@@H](NC(=O)COCCOCC#Cc2cnc(N)c3c(-c4ccc(NS(=O)(=O)C(F)F)c(O[C@@H](C)c5ccc(F)cc5)c4)nn(C)c23)C(C)(C)C)cc1` [Compound 1075, (2S,4R)-1-[(2S)-2-(2-{2-[(3-{4-amino-3-[4-(difluoromethanesulfonamido)-3-[(1S)-1-(4-fluorophenyl)ethoxy]phenyl]-1-methyl-1H-pyrazolo[4,3-c]pyridin-7-yl}prop-2-yn-1-yl)oxy]ethoxy}acetamido)-3,3-dimethylbutanoyl]-4-hydroxy-N-{[4-(4-methyl-1,3-thiazol-5-yl)phenyl]methyl}pyrrolidine-2-carboxamide]: at human MLKL (full length), the Kd was less than 0.01 µM. For the same compound, the DC50 at endogenous MLKL in U937 is less than 1 µM.

For the compound `Cc1ncsc1-c1ccc(CNC(=O)[C@@H]2C[C@@H](O)CN2C(=O)[C@@H](NC(=O)CCCCCOc2ccc(-c3cnc(N)c4c(-c5ccc(NS(=O)(=O)C(F)F)c(O[C@@H](C)c6ccc(F)cc6)c5)nn(C)c34)cn2)C(C)(C)C)cc1` [Compound 1050, (2S,4R)-1-[(2S)-2-{6-[(5-{4-amino-3-[4-(difluoromethanesulfonamido)-3-[(1S)-1-(4-fluorophenyl)ethoxy]phenyl]-1-methyl-1H-pyrazolo[4,3-c]pyridin-7-yl}pyridin-2-yl)oxy]hexanamido}-3,3-dimethylbutanoyl]-4-hydroxy-N-{[4-(4-methyl-1,3-thiazol-5-yl)phenyl]methyl}pyrrolidine-2-carboxamide], at human MLKL (full length), the Kd lay within 0.01 to 1 µM. The DC50 at endogenous MLKL in U937 was less than 1 µM; on endogenous MLKL in MDF, 1 to 10 µM.

In the case of `Cc1ncsc1-c1ccc(CNC(=O)[C@@H]2C[C@@H](O)CN2C(=O)[C@@H](NC(=O)COCCCCn2cc(-c3cnc(N)c4c(-c5ccc(NS(=O)(=O)C(F)F)c(O[C@@H](C)c6ccc(F)cc6)c5)nn(C)c34)cn2)C(C)(C)C)cc1` [Compound 1056, (2S,4R)-1-[(2S)-2-{2-[4-(4-{4-amino-3-[4-(difluoromethanesulfonamido)-3-[(1S)-1-(4-fluorophenyl)ethoxy]phenyl]-1-methyl-1H-pyrazolo[4,3-c]pyridin-7-yl}-1H-pyrazol-1-yl)butoxy]acetamido}-3,3-dimethylbutanoyl]-4-hydroxy-N-{[4-(4-methyl-1,3-thiazol-5-yl)phenyl]methyl}pyrrolidine-2-carboxamide], on human MLKL (full length), the dissociation constant (Kd) lay in the range of 0.01 to 1 µM. Moreover, the half-maximal degradation concentration (DC50) on endogenous MLKL in U937 was less than 1 µM; at endogenous MLKL in MDF it was 1 to 10 µM.

With `Cc1ncsc1-c1ccc(CNC(=O)[C@@H]2C[C@@H](O)CN2C(=O)[C@@H](NC(=O)CCCCCCC#Cc2cnc(N)c3c(-c4ccc(NS(=O)(=O)C(F)F)c(F)c4)nn(C)c23)C(C)(C)C)cc1` [Compound 1052, (2S,4R)-1-[(2S)-2-(9-{4-amino-3-[4-(difluoromethanesulfonamido)-3-fluorophenyl]-1-methyl-1H-pyrazolo[4,3-c]pyridin-7-yl}non-8-ynamido)-3,3-dimethylbutanoyl]-4-hydroxy-N-{[4-(4-methyl-1,3-thiazol-5-yl)phenyl]methyl}pyrrolidine-2-carboxamide], at human MLKL (full length), the Kd was 0.01 to 1 µM. Also, on endogenous MLKL in U937, the DC50 fell in the range of 1 to 10 µM.
